Patent publication US9198425B2, “Herbicidally-effective sulfinyl aminobenzamides” (BAYER INTELLECTUAL PROPERTY GMBH, priority 2012, dated 2015)

Assays:
Assay in all cases: Pre-emergence herbicidal action
Assay type in all cases: in vivo
Veronica persica = settings: Table A, dosage 320 g/ha
Text: (§1) Seeds of monocotyledonous and dicotyledonous weed plants and crop plants are placed in wood-fiber pots in sandy loam and covered with soil. The inventive compounds formulated in the form of wettable powders (WP) or as emulsion concentrates (EC) are then applied to the surface of the covering soil as an aqueous suspension or emulsion at a water application rate of 600 to 800 l/ha (converted) with addition of 0.2% wetting agent. After the treatment, the pots are placed in a greenhouse and kept under good growth conditions for the test plants. The damage to the test plants is assessed visually after a test period of 3 weeks by comparison with untreated controls (herbicidal activity in percent (%): 100% action=the plants have died, 0% action=like control plants). For example, compounds No. 6-102, 6-014 and 6-058 at an application rate of 320 g/ha each show at least 80% efficacy against Abutilon theophrasti, Amaranthus retroflexus and Matricaria inodora.
(§2) In accordance with the conditions specified for pre-emergence testing of herbicidal efficacy against harmful plants, comparative tests were conducted between inventive compounds and compounds known from WO 2011035874 A1.

Matricaria inodora = settings: dosage 320 g/ha
Text: as §1, §2

Abutilon theophrasti = settings: dosage 320 g/ha
Text: as §1, §2

Amaranthus retroflexus = settings: dosage 320 g/ha
Text: as §1, §2

Pharbitis purpureum = settings: dosage 320 g/ha
Text: as §1, §2

Avena fatua = settings: Table C, dosage 320 g/ha
Text: as §1, §2

Stellaria media = settings: dosage 320 g/ha
Text: as §1, §2

Row | SMILES | Herbicidal efficacy against VERPE (Veronica persica) | Herbicidal efficacy against MATIN (Matricaria inodora; Table A) | Herbicidal efficacy against ABUTH (Abutilon theophrasti; Table A) | Herbicidal efficacy against AMARE (Amaranthus retroflexus; Table A) | Herbicidal efficacy against PHBPU (Pharbitis purpureum; Table A) | Herbicidal efficacy against MATIN (Matricaria inodora; Table C) | Herbicidal efficacy against PHBPU (Pharbitis purpureum; Table C) | Herbicidal efficacy against AVEFA (Avena fatua) | Herbicidal efficacy against STEME (Stellaria media; Table C) | Herbicidal efficacy against MATIN (Matricaria inodora; Table B) | Herbicidal efficacy against ABUTH (Abutilon theophrasti; Table B) | Herbicidal efficacy against AMARE (Amaranthus retroflexus; Table B) | Herbicidal efficacy against STEME (Stellaria media; Table B)
1 | CCS(=O)(CC)=Nc1c(Cl)ccc(C(=O)Nc2nonc2C)c1Cl | 90% | 90% | 80% | 90% | 80% | – | – | – | – | – | – | – | –
2 | Cc1nonc1NC(=O)c1ccc(Cl)c(N(C)C)c1Cl [drawing 39] | 40% | 0% | 0% | 30% | 10% | – | – | – | – | – | – | – | –
3 | Cc1nonc1NC(=O)c1ccc(Cl)c(N=S2(=O)CCOCC2)c1Cl | – | – | – | – | – | 100% | 100% | 70% | 90% | – | – | – | –
4 | Cc1nonc1NC(=O)c1ccc(Cl)c(N=S2(=O)CCCCC2)c1Cl | – | – | – | – | – | – | – | – | – | 90% | 90% | 60% | 70%
5 | Cc1nonc1NC(=O)c1ccc(Cl)c(N(C)C)c1Cl [drawing 41] | – | – | – | – | – | – | – | – | – | 0% | 0% | 30% | 0%
6 | Cc1nonc1NC(=O)c1ccc(Cl)c(N(C)C)c1Cl [drawing 43] | – | – | – | – | – | 0% | 10% | 0% | 0% | – | – | – | –
